Measured values as given in patent US20110070357A1, “Apparatus and Methods for Loading a Drug Eluting Medical Device” (Medtronic Vascular, Inc., priority 2009, published 2011).

Assay: solubility of sirolimus in solvents / dispersion media
Format: physicochemical
Description: Solution 524 is a homogeneous mixture in which therapeutic substance 112 dissolves within a solvent or a solvent mixture. In one embodiment, solution 524 includes a high-capacity solvent 528 which is an organic solvent that has a high capacity to dissolve therapeutic substance 112. High capacity as utilized herein is defined as an ability to dissolve therapeutic substance 112 at concentrations greater than 500 mg of substance per milliliter of solvent. Examples of high capacity drug dissolving solvents for sirolimus and similar substances include but are not limited to tetrahydrofuran (THF), di-chloromethane (DCM), chloroform, and di-methyl-sulfoxide (DMSO). In addition to the high-capacity solvent, solution 524 may include an excipient 526 in order to assist in drug elution. In one embodiment, excipient 526 may be a surfactant such as but not limited to sorbitan fatty acid esters such as sorbitan monooleate and sorbitan monolaurate, polysorbates such as polysorbate 20, polysorbate 60, and polysorbate 80, cyclodextrins such as 2-hydroxypropyl-beta-cyclodextrin and 2,6-di-O-methyl-beta-cyclodextrin, sodium dodecyl sulfate, octyl glucoside, and low molecular weight poly(ethylene glycol)s. In another embodiment, excipient 526 may be a hydrophilic agent such as but not limited to salts such as sodium chloride and other materials such as urea, citric acid, and ascorbic acid. […]

solubility in hexane (hexane): insoluble in hexane | solubility in water (water): insoluble in water
SMILES: CO[C@H]1C[C@@H]2CC[C@@H](C)[C@@](O)(O2)C(=O)C(=O)N2CCCC[C@H]2C(=O)O[C@H]([C@H](C)C[C@@H]2CC[C@@H](O)[C@H](OC)C2)CC(=O)[C@H](C)/C=C(\C)[C@@H](O)[C@@H](OC)C(=O)[C@H](C)C[C@H](C)/C=C/C=C/C=C/1C [sirolimus]
